The target in this assay is T1, human CRHR2-alpha (Homo sapiens, UniProt Q13324).
T1 sequence (Q13324 1-411): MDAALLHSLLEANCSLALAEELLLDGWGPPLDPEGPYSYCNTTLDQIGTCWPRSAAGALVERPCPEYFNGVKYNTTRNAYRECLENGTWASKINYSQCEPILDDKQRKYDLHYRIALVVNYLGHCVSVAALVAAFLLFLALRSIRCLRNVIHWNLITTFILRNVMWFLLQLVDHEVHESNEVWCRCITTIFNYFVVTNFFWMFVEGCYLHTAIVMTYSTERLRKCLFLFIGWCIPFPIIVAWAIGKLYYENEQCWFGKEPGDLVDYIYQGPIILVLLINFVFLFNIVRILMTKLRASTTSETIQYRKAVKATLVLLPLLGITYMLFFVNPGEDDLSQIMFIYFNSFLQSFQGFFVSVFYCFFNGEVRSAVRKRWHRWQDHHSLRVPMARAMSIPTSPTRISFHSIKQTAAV
In words: cAMP functional assay for human CRHR2 (LANCE Ultra cAMP, TR-FRET). It is filed as cell-based. As to conditions: CHO-K1 cells expressing human CRHR2-alpha, agonist human urocortin2 at EC80, cAMP; read-out: IC50 against CRHR2. The method in brief:
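CHO-K1 cells stably expressing each receptor, serum-starved and cryopreserved, were preincubated with compound 30 min at 25° C in HBSS buffer with 0.5 mM IBMX, pH 7.4, then stimulated 30 min with EC80 agonist (urocortin2 for CRHR2, CRF for CRHR1). cAMP read by TR-FRET; IC50 from percent-inhibition curves.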
For orientation: Time-resolved FRET reads energy transfer from a long-lived donor to a nearby acceptor.
The term IC50 denotes the midpoint of a concentration-inhibition curve. Turning to `Cc1cc(-n2c(=O)n(C[C@H]3CC[C@H](NC(=O)c4cc(Cl)cnc4C(F)(F)F)CC3)c3ccccc32)ccn1` [Example 316, 5-chloro-N-((1r,4r)-4-((3-(2-methylpyridin-4-yl)-2-oxo-2,3-dihydro-1H-benzo [d]imidazol-1-yl)methyl)cyclohexyl)-2-(trifluoro-methyl)nicotinamide], the IC50 is < 300 nM.

With `CNC(=O)c1ccc(-n2c(=O)n(C[C@H]3CC[C@H](NC(=O)c4cc(Cl)cnc4C4CC4)CC3)c3ccccc32)cn1` [Example 317, 5-(3-(((1r,4r)-4-(5-chloro-2-cyclopropylnicotinamido)cyclohexyl)methyl)-2-oxo-2,3-dihydro-1H-benzo[d]imidazol-1-yl)-N-methyl-picolinamide], the IC50 is < 300 nM.

`Cc1ncc(Cl)cc1C(=O)N[C@H]1CC[C@H](Cn2c(=O)n(-c3cccnc3C(F)(F)F)c3ccccc32)CC1` [Example 318, 5-chloro-2-methyl-N-((1r,4r)-4-((2-oxo-3-(2-(trifluoro-methyl)pyridin-3-yl)-2,3-dihydro-1H-benzo[d]imidazol-1-yl)methyl)cyclohexyl) nicotinamide]: the IC50 was < 300 nM.

Take `Cc1ncc(Cl)cc1C(=O)N[C@H]1CC[C@H](Cn2c(=O)n(-c3cnc4c(N)ncnc4c3)c3ccccc32)CC1` [Example 319, N-((1r,4r)-4-((3-(4-aminopyrido[3,2-d]pyrimidin-7-yl)-2-oxo-2,3-dihydro-1H-benzo[d]imidazol-1-yl)methyl)cyclohexyl)-5-chloro-2-methylnicotinamide]: the IC50 was < 300 nM.

As for `Cc1ncc(Cl)cc1C(=O)N[C@H]1CC[C@H](Cn2c(=O)n(-c3ccncc3C(F)(F)F)c3ccccc32)CC1` [Example 320, 5-chloro-2-methyl-N-((1r,4r)-4-((2-oxo-3-(3-(trifluoro-methyl)pyridin-4-yl)-2,3-dihydro-1H-benzo[d]imidazol-1-yl)methyl)cyclohexyl) nicotinamide], the IC50 was < 300 nM.

Regarding `CNC(=O)c1ccc(-n2c(=O)n(C[C@H]3CC[C@H](NC(=O)c4cc(Cl)cnc4CCOC)CC3)c3ccccc32)cn1` [Example 321, 5-(3-(((1r,4r)-4-(5-chloro-2-(2-methoxyethyl)nico-tinamido)cyclohexyl)methyl)-2-oxo-2,3-dihydro-1H-benzo [d]imidazol-1-yl)-N-methylpicolinamide], the IC50 is < 300 nM.

With `CNC(=O)c1ccc(-n2c(=O)n(C[C@H]3CC[C@H](NC(=O)c4cc(Cl)cnc4C4CCC4)CC3)c3ccccc32)cn1` [Example 322, 5-(3-(((1r,4r)-4-(5-chloro-2-cyclobutylnicotinamido)cyclohexyl)methyl)-2-oxo-2,3-dihydro-1H-benzo[d]imidazol-1-yl)-N-methyl-picolinamide], the IC50 was < 300 nM.

For `COc1ccc(-n2c(=O)n(C[C@H]3CC[C@H](NC(=O)c4cc(Cl)cnc4C(F)F)CC3)c3ccccc32)cn1` [Example 323, 5-chloro-2-(difluoromethyl)-N-((1r,4r)-4-((3-(6-methoxy-pyridin-3-yl)-2-oxo-2,3-di-hydro-1H-benzo[d]imidazol-1-yl)methyl)cyclohexyl)nico-tinamide], the IC50 is < 300 nM.

On to `Cc1ccc(-n2c(=O)n(C[C@H]3CC[C@H](NC(=O)c4cc(Cl)cnc4C(F)F)CC3)c3ccccc32)cn1` [Example 324, 5-chloro-2-(difluoromethyl)-N-((1r,4r)-4-((3-(6-methyl-pyridin-3-yl)-2-oxo-2,3-dihydro-1H-benzo[d]imidazol-1-yl)methyl)cyclohexyl)nico-tinamide], for which the IC50 was < 300 nM.

On to `CNC(=O)c1ccc(-n2c(=O)n(C[C@H]3CC[C@H](NC(=O)c4cc(Cl)cnc4C(F)F)CC3)c3ccccc32)cn1` [Example 325, 5-(3-(((1r,4r)-4-(5-chloro-2-(difluoromethyl)nicotina-mido)cyclohexyl)methyl)-2-oxo-2,3-dihydro-1H-benzo [d]imidazol-1-yl)-N-methylpicolinamide], for which the IC50 is < 300 nM.

`Cn1cnc2cc(-n3c(=O)n(C[C@H]4CC[C@H](NC(=O)c5cc(Cl)cnc5C(F)(F)F)CC4)c4ccccc43)ccc21` [Example 326, 5-chloro-N-((1r,4r)-4-((1′-methyl-2-oxo-1′H-[1,5′-bibenzo[d]imidazol]-3(2H)-yl)methyl)cyclohexyl)-2-(trifluoromethyl)nicotinamide]: the IC50 is < 300 nM.

With `O=C(N[C@H]1CC[C@H](Cn2c(=O)n(-c3ccc4cncn4c3)c3ccccc32)CC1)c1cc(Cl)cnc1C(F)(F)F` [Example 327, 5-chloro-N-((1r,4r)-4-((3-(imidazo[1,5-a]pyridin-6-yl)-2-oxo-2,3-dihydro-1H-benzo[d]imidazol-1-yl)methyl)cyclohexyl)-2-(trifluoromethyl)nicotinamide], the IC50 was < 300 nM.

For `CNC(=O)c1ccc(-n2c(=O)n(C[C@H]3CC[C@H](NC(=O)c4cc(Cl)cnc4N(C)C)CC3)c3ccccc32)cn1` [Example 328, 5-(3-(((1r,4r)-4-(5-chloro-2-(dimethylamino)nicotinamido)cyclohexyl)methyl)-2-oxo-2,3-dihydro-1H-benzo[d]imidazol-1-yl)-N-methyl-picolinamide], the IC50 is < 300 nM.

On to `COCc1ncc(Cl)cc1C(=O)N[C@H]1CC[C@H](Cn2c(=O)n(-c3ccc(C)nc3)c3ccccc32)CC1` [Example 329, 5-chloro-2-(methoxymethyl)-N-((1r,4r)-4-((3-(6-methyl-pyridin-3-yl)-2-oxo-2,3-dihydro-1H-benzo[d]imidazol-1-yl)methyl)cyclohexyl) nicotinamide], for which the IC50 was < 300 nM.

`Cc1cc(C)c(-n2c(=O)n(C[C@H]3CC[C@H](NC(=O)c4cc(Cl)cnc4C)CC3)c3ccccc32)cn1` [Example 330, 5-chloro-N-((1r,4r)-4-((3-(4,6-dimethylpyridin-3-yl)-2-oxo-2,3-dihydro-1H-benzo [d]imidazol-1-yl)methyl)cyclohexyl)-2-methylnico-tinamide]: the IC50 was < 300 nM.

As for `Cc1ncc(Cl)cc1C(=O)N[C@H]1CC[C@H](Cn2c(=O)n(-c3ccnc(C)c3C)c3ccccc32)CC1` [Example 331, 5-chloro-N-((1r,4r)-4-((3-(2,3-dimethylpyridin-4-yl)-2-oxo-2,3-dihydro-1H-benzo [d]imidazol-1-yl)methyl)cyclohexyl)-2-methylnico-tinamide], the IC50 is < 300 nM.

Turning to `CNc1ccc(-n2c(=O)n(C[C@H]3CC[C@H](NC(=O)c4cc(Cl)cnc4C(F)(F)F)CC3)c3ccccc32)cn1` [Example 332, 5-chloro-N-((1r,4r)-4-((3-(6-(methylamino)pyridin-3-yl)-2-oxo-2,3-dihydro-1H-benzo[d]imidazol-1-yl)methyl)cyclohexyl)-2-(trifluoromethyl) nicotinamide], the IC50 is < 300 nM.

Take `CN(C)c1ccc(-n2c(=O)n(C[C@H]3CC[C@H](NC(=O)c4cc(Cl)cnc4C(F)(F)F)CC3)c3ccccc32)cn1` [Example 333, 5-chloro-N-((1r,4r)-4-((3-(6-(dimethylamino)pyridin-3-yl)-2-oxo-2,3-dihydro-1H-benzo [d]imidazol-1-yl)methyl)cyclohexyl)-2-(trifluoromethyl) nicotinamide]: the IC50 is < 300 nM.

On to `O=C(N[C@H]1CC[C@H](Cn2c(=O)n(-c3ccncc3Cl)c3ccccc32)CC1)c1cc(Cl)cnc1C(F)(F)F` [Example 334, 5-chloro-N-((1r,4r)-4-((3-(3-chloropyridin-4-yl)-2-oxo-2,3-dihydro-1H-benzo[d]imidazol-1-yl)methyl)cyclo-hexyl)-2-(trifluoromethyl) nicotinamide], for which the IC50 is < 300 nM.

`CNC(=O)c1ccc(-n2c(=O)n(C[C@H]3CC[C@H](NC(=O)c4cc(Cl)cnc4COC)CC3)c3ccccc32)cn1` [Example 335, 5-(3-(((1r,4r)-4-(5-chloro-2-(methoxymethyl)nico-tinamido)cyclohexyl)methyl)-2-oxo-2,3-dihydro-1H-benzo[d]imidazol-1-yl)-N-methylpicolinamide]: the IC50 is < 300 nM.

For the molecule `Cc1cc(-n2c(=O)n(C[C@H]3CC[C@H](NC(=O)c4cc(Cl)cnc4C)CC3)c3ccccc32)c(C)cn1` [Example 336, 5-chloro-N-((1r,4r)-4-((3-(2,5-dimethylpyridin-4-yl)-2-oxo-2,3-dihydro-1H-benzo[d]imidazol-1-yl)methyl)cyclohexyl)-2-methylnicotinamide], the IC50 was < 300 nM.

In the case of `Cc1ncc(Cl)cc1C(=O)N[C@H]1CC[C@H](Cn2c(=O)n(-c3cccc4cccnc34)c3ccccc32)CC1` [Example 337, 5-chloro-2-methyl-N-((1r,4r)-4-((2-oxo-3-(quinolin-8-yl)-2,3-dihydro-1H-benzo[d]imidazol-1-yl)methyl)cyclo-hexyl)nicotinamide], the IC50 is < 300 nM.

Turning to `Cc1ncc(Cl)cc1C(=O)N[C@H]1CC[C@H](Cn2c(=O)n(-c3cncc4ccccc34)c3ccccc32)CC1` [Example 338, 5-chloro-N-((1r,4r)-4-((3-(isoquinolin-4-yl)-2-oxo-2,3-dihydro-1H-benzo[d]imidazol-1-yl)methyl)cyclo-hexyl)-2-methylnicotinamide], the half-maximal inhibitory concentration (IC50) was < 300 nM.

Consider `Cc1ncc(Cl)cc1C(=O)N[C@H]1CC[C@H](Cn2c(=O)n(-c3ccc4nn(C5COC5)nc4c3)c3ccccc32)CC1` [Example 340, 5-chloro-2-methyl-N-((1r,4r)-4-((3-(2-(oxetan-3-yl)-2H-benzo[d][1,2,3]triazol-5-yl)-2-oxo-2,3-dihydro-1H-benzo [d]imidazol-1-yl)methyl)cyclohexyl)nicotinamide], for which the IC50 was < 300 nM.

The values are drawn from US11802120B2, “Fused cyclic urea derivatives as CRHR2 antagonist” (RaQualia Pharma Inc., priority 2018, dated 2023).
